Reference: PubChem BioAssay (NCI)
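Method: 48-hour compound exposure of cells in 96-well plates, five concentrations, linear interpolation of endpoints. At the TGI there is no net growth.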

Assays:
Assay in all cases: NCI tumour cell line growth inhibition, 48 h
RPMI-8226 leukemia = system: RPMI-8226 leukemia
CAKI-1 renal = system: CAKI-1 renal
OVCAR-3 ovarian = system: OVCAR-3 ovarian
SK-OV-3 ovarian = system: SK-OV-3 ovarian
ACHN renal = system: ACHN renal
OVCAR-8 ovarian = system: OVCAR-8 ovarian
K-562 leukemia = system: K-562 leukemia
RXF 393 renal = system: RXF 393 renal
HOP-62 NSCLC = system: HOP-62 NSCLC
HS 578T breast = system: HS 578T breast
A549 NSCLC = system: A549 NSCLC
U251 CNS = system: U251 CNS
A498 renal = system: A498 renal
SK-MEL-28 melanoma = system: SK-MEL-28 melanoma
BT-549 breast = system: BT-549 breast
OVCAR-4 ovarian = system: OVCAR-4 ovarian
TK-10 renal = system: TK-10 renal
NCI/ADR-RES ovarian = system: NCI/ADR-RES ovarian
HL-60(TB) leukemia = system: HL-60(TB) leukemia

SMILES | TGI (RPMI-8226 leukemia) [µM] | TGI (CAKI-1 renal) [µM] | TGI (OVCAR-3 ovarian) [µM] | TGI (SK-OV-3 ovarian) [µM] | TGI (ACHN renal) [µM] | TGI (OVCAR-8 ovarian) [µM] | TGI (K-562 leukemia) [µM] | TGI (RXF 393 renal) [µM] | TGI (HOP-62 NSCLC) [µM] | TGI (HS 578T breast) [µM] | TGI (A549 NSCLC) [µM] | TGI (U251 CNS) [µM] | TGI (A498 renal) [µM] | TGI (SK-MEL-28 melanoma) [µM] | TGI (BT-549 breast) [µM] | TGI (OVCAR-4 ovarian) [µM] | TGI (TK-10 renal) [µM] | TGI (NCI/ADR-RES ovarian) [µM] | TGI (HL-60(TB) leukemia) [µM]
CCOC(=O)c1cc(C2CCN(Cc3ccccc3)C2=S)c(C(=O)C=[N+]=[N-])[nH]1 (stereo unspecified) | > 100 | > 100 | 45.1 | > 100 | > 100 | > 100 | > 100 | 75.5 | > 100 | > 100 | > 100 | > 100 | > 100 | 51.5 | 67.6 | > 100 | > 100 | 79.6 | 
COC(=O)/C(C#N)=C(\N)c1c(C)c2ccccc2oc1=N | > 100 |  | > 100 | > 100 |  |  | > 100 | > 100 | > 100 | > 100 | > 100 | > 100 | > 100 | > 100 | > 100 | > 100 | > 100 |  | > 100
CCCCOC(=O)c1cc(C(=CCC[C@H]2CC[C@@]3(C)[C@@H](CC[C@@H]4[C@@H]3CC[C@]3(C)[C@@H](C(C)CCCC(C)C)CC[C@@H]43)C2)c2cc(Cl)c(O)c(C(=O)OCCCC)c2)cc(Cl)c1O (stereo partly specified) | > 50 | > 50 | > 50 |  |  | > 50 | > 5 |  | > 50 | > 50 |  | > 50 | > 50 |  | > 50 | > 50 |  | > 50 | > 50
CN(C)c1ccc(/C=C/c2cc(-c3ccccc3)[n+](C)n2-c2ccccc2)cc1 | > 100 | 13 | 17.2 | 4.33 | 16 |  |  | 4.18 | 12.4 | 0.248 | 23.2 | > 33.8 | 14.5 | > 34.6 | 0.613 | > 69.2 | 30.5 | > 100 | 0.128
Clc1c2ccccc2nc2c1[nH]c1ccccc12 | 68.2 | 65.2 | > 100 |  | > 100 | > 100 |  |  | > 100 | > 100 | > 100 | > 100 | > 100 | > 100 | > 100 | > 100 | > 100 | 89.7 | 41.4
CC1(C)OC(=O)C(Cc2ccccc2)(Cc2ccccc2)C(=O)O1 |  | > 100 |  | > 100 | > 100 | > 100 | > 100 | > 100 | > 100 | > 100 | > 100 | > 100 |  | > 100 | > 100 | > 100 | > 100 | > 100 | > 100
CCCCCCCCC/C=C1/CC(CO)(COC(=O)c2ccccc2)OC1=O (stereo unspecified) |  | 24.8 | 31.2 | 36 | 24.9 |  | 22.5 | 31 | 19 | 13 | 26.7 | 27.1 | 26.4 | 26.6 | 27.1 | 26.5 | 22.7 | 28.8 | 
COc1cc(/C=N/NC2=NCCCCN2)ccc1O | > 100 |  | > 100 | > 100 | > 100 | > 100 | > 100 | > 100 | > 100 | > 100 | > 100 | > 100 | > 100 | > 100 | > 100 | > 100 | > 100 | > 100 | > 100
CCO/C(Cc1ccc(Cl)cc1)=N/NC(N)=S |  | > 100 | > 100 | > 100 | > 100 | > 100 | > 100 |  | > 100 | > 100 | > 100 | > 100 | > 100 | > 100 | > 100 | > 100 | > 100 | > 100 | 
Cc1c(F)c(NC(=O)CN(C)C)c2c(=O)cc(-c3ccc(NC(=O)CN(C)C)c(F)c3)oc2c1F | 38.9 | 23.1 |  | 30.5 | 29.6 | 37.5 | 37.5 | 25.6 | 32.5 | 56.5 | 35.6 | 27.2 | 3.64 | 40.9 | 35.3 | 37.6 | 23.4 | 39.6 | 35.9
CC1C(c2ccccc2O)c2cc3c(cc2OC1N1CCOCC1)OCO3 (stereo unspecified) | 39.1 | 77.5 | 60.6 | > 100 | > 100 | > 100 | 90.6 | 48.9 | 35.8 | 57.9 | 80.7 | 64.7 | 52.1 | > 100 | > 100 |  | 97.6 |  | 40
CC1CN=C(Nc2ccc(F)c(Cl)c2)S1 (stereo unspecified) | > 100 | > 100 | > 100 | > 100 | > 100 | > 100 | > 100 | > 100 | > 100 | > 100 | > 100 | > 100 | > 100 | > 100 | > 100 |  | > 100 | > 100 | > 100
CC(=O)/C(C=Nc1c(C)n(C)n(C)c1=O)=C(/O)c1ccccc1 | > 50 | > 50 | > 50 | > 50 | > 50 |  | > 50 | > 50 | > 50 | > 50 | > 50 | > 50 | > 50 | > 50 | > 50 | > 50 | > 50 |  | > 50
S=C(N1CCN(c2ccccc2)CC1)N1CCN(c2ccccc2)CC1 | > 100 | > 100 | > 100 | > 100 | > 100 | > 100 | > 100 | > 100 | > 100 | > 100 | > 100 | > 100 | > 100 | > 100 | > 100 | > 100 | > 100 | > 100 | 
CCCNC(=O)N1CC(CN2CCN(c3ccccc3)CC2)O/C1=N/C(=O)Nc1ccccc1 (stereo unspecified) | > 100 | > 100 |  | > 100 | > 100 |  | > 100 | > 100 | > 100 | > 100 | > 100 | > 100 | > 100 | > 100 | > 100 | > 100 | > 100 | > 100 | > 100
Cc1nnc(Sc2nc(C#N)c(C#N)nc2Sc2nnc(C)s2)s1 |  |  | 25.3 | 34.2 | 8.08 | 8.34 | 12.6 | 6 | > 74.3 | 99.4 | 56.2 | 47.5 | 53.3 | 47 | 27.7 | > 80.1 | 41.4 | 51 | 8.83
Cc1cc2nc(N3C(=O)/C(=C/c4ccc(N(C)C)cc4)N=C3c3ccccc3)sc2cc1C | > 100 | > 100 | > 100 | > 100 | 62.4 | > 100 | > 100 | 57.9 | > 100 | > 100 | > 100 | > 100 |  | > 100 | > 100 | > 100 | > 100 | > 100 | 46.2
COc1ccc(/C(=N\Nc2ccccn2)c2ccccn2)cc1 | 3.85 | 22.6 | 19.5 | 10.1 | 2.81 | 11.8 | > 100 | 36.6 | 10.4 | 18.4 | 11.1 | 17.1 | > 100 | > 53 | > 100 | 42.9 |  | 0.0475 | 18.4
CCCCc1c2c(c(C)c3c1C(=O)OC3)Oc1ccccc1O2 | > 24.5 | > 100 | 1.51 | > 100 | > 100 | 35.7 | 22.4 | 7.98 | > 68.3 | 5.8 | > 43.2 | 14.9 | > 46.5 | > 100 | > 100 | > 95.6 | > 71.3 | 20.5 | 
S=C=NC1CCC(c2cc3ccccc3s2)(N2CCCCC2)CC1 (stereo unspecified) |  | 3.45 | 4.34 | 4.59 | 3.34 |  | 1.98 | 3.16 |  | 4.73 | 11.1 |  | 5.1 | 3.39 | 6.55 | 3.7 | 3.45 | 5.68 | 3.09
NC(Cc1ccc(B(O)O)cc1)C(=O)NC(CO)CO (stereo unspecified) | > 100 | > 100 | > 100 | > 100 | > 100 | > 100 | > 100 | > 100 | > 100 | > 100 | > 100 | > 100 |  | > 100 | > 100 | > 100 | > 100 | > 100 | 
COc1ccc(C(=O)/C=C/c2ccc(OCC(=N)N)cc2)cc1 |  |  | 27.5 | 25.5 | 31.9 | 37.3 | 20.1 | 28.3 | 29.9 | 34.9 | 33.1 | 27.7 | 27.9 | 28.6 | 31.7 | 30.5 | 38.9 | 72 | 
O=C1c2ccccc2C(=O)c2c(NCCCN3CCOCC3)ccc(NCCCN3CCOCC3)c21 | 42.8 | 32 | 40.3 |  | 19.5 | 14.1 | > 100 | 27.1 | 13.1 | 28.5 | 16.2 | 19 | 25.2 | 19.8 | 21.6 | > 100 | 39.1 |  | > 100
N/C(=N\S(=O)(=O)c1cc(Cl)c(Oc2ccc([N+](=O)[O-])cc2Cl)c(Cl)c1)Nc1ccc(Cl)cc1 |  | 33.1 | 37.6 | 39.8 | 30.5 | 31.9 | 43.1 | 31.8 |  | > 100 | 35.9 | 29.6 | 29.4 | 33 | 32.3 | 30.4 | 35.4 | 35.3 | 39.6
CSc1c(C#N)c(S)[nH]c(=O)c1C#N | > 100 | > 100 | > 100 | > 100 |  | > 100 | > 100 | > 100 |  | > 100 | > 100 | > 100 | 98 | > 100 | > 100 | > 100 | > 100 | > 100 | > 100
O=P(O)(CN1CCN(CP(=O)(O)c2ccccc2)CCN(CP(=O)(O)c2ccccc2)CC1)c1ccccc1 | > 100 | > 100 | > 100 | > 100 | > 100 | > 100 | > 100 | > 100 | > 100 |  | > 100 | > 100 | 88.6 | > 100 | > 100 | > 100 | > 100 | > 100 | > 100
O=C1NC(=S)NC(=O)C1=C/C=C/c1ccc([N+](=O)[O-])cc1 | > 100 | 30.8 | 29.1 | 36 | 39 | 47.6 | > 100 | 26.8 | 34.9 | 44.6 | 50.4 | 19.6 |  | 10.4 | 25 | 36.1 | 22.5 | 46.8 | > 100
